Data: patent US20160361445A1, “COMPOUND OR SALT THEREOF AND PHOTOACOUSTIC IMAGING CONTRAST AGENT CONTAINING COMPOUND OR SALT THEREOF” (CANON KABUSHIKI KAISHA, priority 2015, published 2016)

Assay: Photoacoustic characteristic evaluation (photoacoustic signal measurement)
Settings: pulse laser 790 nm, 12 mJ/cm^2; contrast agent in distilled water
Experimental: Regarding the measurement of a photoacoustic signal, a sample was irradiated with pulse laser light, a photoacoustic signal from the sample was detected by using a piezoelectric element and was measured by a digital oscilloscope after being amplified by a high-speed preamplifier. Specific conditions were as described below. A titanium sapphire laser (produced by Lotis) was used as a light source. Regarding the conditions, the wavelength was 790 nm, the energy density was 12 mJ/cm^2, the pulse width was 20 nanoseconds, and the pulse repetition was 10 Hz. Model V303 (produced by Panametrics-NDT) was used as an ultrasonic transducer. Regarding the conditions, the center band was 1 MHz, the element size was φ0.5, the measurement distance was 25 mm (non-focus), and the amplification was +30 dB (ultrasonic preamplifier Model 5682 produced by Olympus Corporation). A measurement container was a polystyrene cuvette, the optical path length was 0.1 cm, and the sampling capacitor was about 200 μL. The measurement was performed by using DPO4104 (produced by Tektronix Corporation), where the conditions were as described below, trigger: photoacoustic light was detected by a photodiode data acquisition: average of 128 times (128 pulses)

CC1(C)C(/C=C/C=C/C=C/C=C2\N(CCCCS(=O)(=O)O)c3ccc4ccccc4c3C2(C)C)=[N+](CCCCS(=O)(=O)[O-])c2ccc3ccccc3c21 [Contrast agent (C-1), Indocyanine green]
Photoacoustic signal intensity ratio: 1.0
